Series [1] concerns A549 (non-small cell lung cancer). Kind of series: NCI method SRB growth inhibition, A549. The class given is cell-based. Conditions: Homo sapiens; A549, treated 48 hours, SRB stain. The source says:
(§1) In this embodiment, the method of National Cancer Institute (NCI) was used to evaluate the anti-tumor activity of the embodiment compounds in the present disclosure. Nine representative cell lines were selected for activity evaluation, including A549 (non-small cell lung cancer), HCT116 (colon cancer), SF295 (central nervous system tumor), LOX-IMVI (melanoma), 786-0 (renal cancer), K562 (leukemia), PC-3 (prostate cancer), OVCAR-3 (ovarian cancer) and HS 578T (breast cancer).
(§2) The specific method was as follows: 60 tumor cell lines of 9 kinds of human cancers were used to evaluate the inhibitory activity of the compound in vitro. A test group, a parallel control group and a vehicle control group were set up. The parallel control group was fixed immediately before the compound was added; the cells in the test group were fixed after being treated with the compound for 48 hours; the vehicle control group was fixed after an equal volume of complete medium was added for 48 hours. Sulforhodamine B (SRB) was used to stain, and the OD value was measured at a wavelength of 515 nm. The specific calculation method was as follows: the OD value of the parallel control group was recorded as Tz, the OD value of the vehicle control group was recorded as C, and the OD value of the test group was recorded as (Ti). If Ti≥Tz, it means that the cells still grow after the drug was added, and the growth rate %=[(Ti−Tz)/(C−Tz)]×100; if Ti<Tz, it means that the cells are killed after the drug was added, and the growth rate %=[(Ti−Tz)/Tz]×100. Three parameters were used to evaluate the anti-tumor activity of compounds in this method: 50% growth inhibitory concentration (GI50): i.e. the compound concentration at [(Ti−Tz)/(C−Tz)]×100=50; complete growth inhibitory concentration (TGI): the compound concentration at Ti=Tz; the drug concentration required to kill 50% of the cells (LC50): i.e. the compound concentration at [(Ti−Tz)/Tz]×100=−50.
(§3) The inhibitory activities of the embodiment compounds on nine representative tumor cell lines were listed in detail in Table 1. Wherein, the GI50 value means “50% growth inhibition rate”, that is, the concentration of the compound to be tested when it can inhibit […] of cell growth; “ND” means not detected.
For orientation: Sulforhodamine B stains cellular protein and so reports cell mass.

A further series deals with 786-0 (renal cancer). Kind of series: NCI method SRB growth inhibition, 786-0. The class given is cell-based. Conditions: Homo sapiens; 786-0, treated 48 hours, SRB stain.
From the text: as §1, §2, §3

The subject of another series is HCT116 (colon cancer). Kind of series: NCI method SRB growth inhibition, HCT116. The note with it: Homo sapiens, HCT-116; HCT116, treated 48 hours, SRB stain. The class given is cell-based.
From the text: as §1, §2, §3

The test system of a further series is K562 (leukemia). Kind of series: NCI method SRB growth inhibition, K562. The class given is cell-based. The note with it: Homo sapiens; K562, treated 48 hours, SRB stain.
From the text: as §1, §2, §3

Another series deals with PC-3 (prostate cancer). Kind of series: NCI method SRB growth inhibition, PC-3. The class given is cell-based. Conditions: Homo sapiens; PC-3, treated 48 hours, SRB stain.
From the text: as §1, §2, §3

For another series, the system named is LOX-IMVI (melanoma). Kind of series: NCI method SRB growth inhibition, LOX-IMVI. The class given is cell-based. Conditions: Homo sapiens, treated 48 hours, SRB stain.
From the text: as §1, §2, §3

The test system of series [2] is SF295 (central nervous system tumor). Kind of series: NCI method SRB growth inhibition, SF295. The note with it: Homo sapiens, SF-295; SF295, treated 48 hours, SRB stain. The class given is cell-based.
From the text: as §1, §2, §3

A further series has as its system OVCAR-3 (ovarian cancer). Kind of series: NCI method SRB growth inhibition, OVCAR-3. The class given is cell-based. The note with it: Homo sapiens; OVCAR-3, treated 48 hours, SRB stain.
From the text: as §1, §2, §3

The test system of the next series is HS 578T (breast cancer). Kind of series: NCI method SRB growth inhibition, HS 578T. The class given is cell-based. The note with it: Homo sapiens, HS578T, treated 48 hours, SRB stain.
From the text: as §1, §2, §3

Series [3] in a line: Liver microsomes stability. The note with it: 1 μM compound, 1 mg/mL human liver microsomes, 1 mM NADPH; for half-life at 1 μM: read-out: T½ of HLM. The class given is in vitro ADME, human. As to the method:
The compound to be tested with final concentration of 1 μM was incubated with 1 mg/mL of human liver microsomes and 1 mM of NADPH, and a group without NADPH was set as a negative control. The reaction mixture was quenched with methanol at five time points of 0, 5, 15, 30 and 60 min, respectively, then centrifuged at 2500 rpm for 20 min to precipitate proteins, and the resulting supernatant was analyzed by LC-MS/MS. The data was analyzed and the k value and half-life T1/2 was calculated, T1/2(min)=0.693/k.
Wherein, compounds a, b and c are active compounds disclosed in patent No. ZL201610154581.3.
Background: Liver microsomes are vesicles of endoplasmic reticulum, rich in cytochrome P450 enzymes.

Like-named read-outs stand apart in the source and are kept apart here.

In the case of `[2H]C([2H])([2H])Oc1cc(C(=O)Nc2cc3c(cc2Oc2cc(C)cc(C)c2)C(=O)N[C@@H](CC(=O)N(C)OC)C(=O)N3)c(Cl)c(OC([2H])([2H])[2H])c1OC([2H])([2H])[2H]` [Compound 35], the GI50 (commonly the concentration giving 50% growth inhibition) in series [1] was under 5 nM; with 786-0 (renal cancer), 21.1 nM; in the series on HCT116 (colon cancer), 9.8 nM; in the series on K562 (leukemia), under 5 nM; in the series on PC-3 (prostate cancer) it was under 5 nM; with LOX-IMVI (melanoma) it was 5.6 nM. Besides, the GI50 in series [2] was 29 nM; in the series on OVCAR-3 (ovarian cancer) it was under 5 nM; in the series on HS 578T (breast cancer) it was 16 nM. Also, the microsomal CLint – broadly, the rate of metabolic loss divided by the concentration – at 1 μM in [3] amounted to 11.7 µL/min/mg. In [3] (human, human liver microsomes), the half-life at 1 μM turned out to be 59.2 min.

As for `[2H]C([2H])([2H])Oc1cc(C(=O)Nc2cc3c(cc2Oc2cc(C)cc(C)c2)C(=O)N(C)[C@@H](CC(=O)N(C)OC)C(=O)N3)c(Br)c(OC([2H])([2H])[2H])c1OC([2H])([2H])[2H]` [Compound 32], the GI50 (in [1]; with 786-0 (renal cancer); in the series on HCT116 (colon cancer); with K562 (leukemia); with PC-3 (prostate cancer); in the series on LOX-IMVI (melanoma)) was under 5 nM throughout. The GI50 in [2] is 5 nM; in the series on OVCAR-3 (ovarian cancer), under 5 nM; in the series with HS 578T (breast cancer), under 5 nM. Moreover, in [3], the half-life at 1 μM was determined as 24.7 min. In series [3] (human, human liver microsomes), this molecule returned a microsomal CLint at 1 μM of 28.1 µL/min/mg.

On to `[2H]C([2H])([2H])Oc1cc(C(=O)Nc2cc3c(cc2Oc2cc(C)cc(C)c2)C(=O)N(C)[C@@H](CC(=O)N(C)OC)C(=O)N3)c(Cl)c(OC([2H])([2H])[2H])c1OC([2H])([2H])[2H]` [Compound 36], for which the GI50 in [1] is under 5 nM; with 786-0 (renal cancer), 11.9 nM; in the series with HCT116 (colon cancer), under 5 nM; in the series on K562 (leukemia), under 5 nM; in the series with PC-3 (prostate cancer), under 5 nM; in the series on LOX-IMVI (melanoma), under 5 nM. For the same molecule, the GI50 in series [2] is 10 nM; in the series on OVCAR-3 (ovarian cancer), under 5 nM; with HS 578T (breast cancer), 8.5 nM. In series [3], this molecule returned a microsomal CLint at 1 μM of 6.8 µL/min/mg. In addition, the half-life at 1 μM in series [3] (human, human liver microsomes) amounted to 102 min.

For the molecule `[2H]C([2H])([2H])N(C(=O)C[C@@H]1NC(=O)c2cc(Oc3cc(C)cc(C)c3)c(NC(=O)c3cc(OC)c(OC)c(OC)c3Br)cc2NC1=O)C([2H])([2H])[2H]` [Compound 22, (S)-2-bromo-N-[3-[2-[bis(trideuteromethyl)amino]-2-oxoethyl]-7-(3,5-dimethylphenoxy)-2,5-dioxo-2,3,4,5-tetrahydro-1H-benzo[e][1,4]diazepin-8-yl]-3,4,5-trimethoxybenzamide], the GI50 in [1] is under 5 nM; in the series on 786-0 (renal cancer), 12.6 nM; with HCT116 (colon cancer), 7.1 nM; in the series with K562 (leukemia), under 5 nM; with PC-3 (prostate cancer), under 5 nM; with LOX-IMVI (melanoma) it was under 5 nM. Further, the GI50 in series [2] was 10 nM; in the series with OVCAR-3 (ovarian cancer), under 5 nM. Also, the microsomal CLint at 1 μM in [3] came out at 4.6 µL/min/mg. Besides, in series [3] (human, human liver microsomes), the half-life at 1 μM turned out to be 151 min.

Turning to `[2H]C([2H])([2H])Oc1c(OC)cc(C(=O)Nc2cc3c(cc2Oc2cc(C)cc(C)c2)C(=O)N[C@@H](CC(=O)N(CC)CC)C(=O)N3)c(Cl)c1OC` [Compound 2, (S)-2-chloro-N-[3-[2-(diethylamino)-2-oxoethyl]-7-(3,5-dimethylphenoxy)-2,5-dioxo-2,3,4,5-tetrahydro-1H-benzo[e][1,4]diazepin-8-yl]-3,5-dimethoxy-4-(trideuteromethoxy)benzamide], the GI50 in series [1] was 13.1 nM; in the series on 786-0 (renal cancer), 11.8 nM; in the series on HCT116 (colon cancer), under 5 nM; with K562 (leukemia), under 5 nM; with PC-3 (prostate cancer), 5.5 nM; in the series with LOX-IMVI (melanoma), under 5 nM. The values for the GI50 (in series [2]; in the series with OVCAR-3 (ovarian cancer); in the series on HS 578T (breast cancer)) were 7.9 nM, 6.1 nM and 30.8 nM, respectively. This molecule registered a microsomal CLint at 1 μM in series [3] of 32 µL/min/mg. Besides, the half-life at 1 μM in series [3] (human, human liver microsomes) is 21.7 min.

Consider `[2H]C([2H])([2H])Oc1cc(C(=O)Nc2cc3c(cc2Oc2cc(C)cc(C)c2)C(=O)N[C@@H](CC(=O)N2CCC(F)(F)CC2)C(=O)N3)c(Cl)c(OC([2H])([2H])[2H])c1OC([2H])([2H])[2H]` [Compound 10, (S)-2-chloro-N-[3-[2-(4,4-difluoropiperidin-1-yl)-2-oxoethyl]-7-(3,5-dimethylphenoxy)-2,5-dioxo-2,3,4,5-tetrahydro-1H-benzo[e][1,4]diazepin-8-yl]-3,4,5-tris(trideuteromethoxy)benzamide], for which the GI50 in series [1] was 35.4 nM; in the series with 786-0 (renal cancer), 37 nM; in the series on HCT116 (colon cancer), 34.7 nM; with K562 (leukemia), under 5 nM; in the series with PC-3 (prostate cancer), under 5 nM; in the series with LOX-IMVI (melanoma) it was under 5 nM. The GI50 in series [2] was 10.7 nM; in the series on OVCAR-3 (ovarian cancer), under 5 nM; in the series with HS 578T (breast cancer), 6.4 nM. Further, the microsomal CLint at 1 μM in [3] is 10.2 µL/min/mg. Also, the half-life at 1 μM in series [3] (human, human liver microsomes) came out at 68 min.

Regarding `[2H]C([2H])([2H])Oc1cc(C(=O)Nc2cc3c(cc2Oc2cc(C)cc(C)c2)C(=O)N[C@@H](CC(=O)N(CC)CC)C(=O)N3)c(Br)c(OC([2H])([2H])[2H])c1OC([2H])([2H])[2H]` [Compound 4, (S)-2-bromo-N-[3-[2-(diethylamino)-2-oxoethyl]-7-(3,5-dimethylphenoxy)-2,5-dioxo-2,3,4,5-tetrahydro-1H-benzo[e][1,4]diazepin-8-yl]-3,4,5-tris(trideuteromethoxy)benzamide], the GI50 in series [1] is under 5 nM; in the series on 786-0 (renal cancer), 11.9 nM; with HCT116 (colon cancer), under 5 nM; with K562 (leukemia) it was under 5 nM; with PC-3 (prostate cancer), under 5 nM; in the series with LOX-IMVI (melanoma), under 5 nM. Besides, the results for the GI50 (in series [2]; in the series on OVCAR-3 (ovarian cancer)) were 6 nM and under 5 nM, respectively. Besides, in series [3], the microsomal CLint at 1 μM came out at 20.5 µL/min/mg. Besides, the half-life at 1 μM in series [3] (human, human liver microsomes) is 33.8 min.

`[2H]C([2H])([2H])N(C(=O)C[C@H]1C(=O)Nc2cc(NC(=O)c3cc(OC)c(OC)c(OC)c3Br)c(Oc3cc(C)cc(C)c3)cc2C(=O)N1C)C([2H])([2H])[2H]` [Compound 15, (S)-2-bromo-N-[3-[2-[bis(trideuteromethyl)amino]-2-oxoethyl]-7-(3,5-dimethylphenoxy)-4-methyl-2,5-dioxo-2,3,4,5-tetrahydro-1H-benzo[e][1,4]diazepin-8-yl]-3,4,5-trimethoxybenzamide]: the GI50 in series [1] was under 5 nM; in the series with 786-0 (renal cancer), 6.2 nM; in the series with K562 (leukemia), under 5 nM; with PC-3 (prostate cancer) it was under 5 nM; in the series on LOX-IMVI (melanoma) it was under 5 nM; in [2], under 5 nM. The molecule further displayed a GI50 in the series on OVCAR-3 (ovarian cancer) of under 5 nM. In [3], this molecule had a microsomal CLint at 1 μM of 10.8 µL/min/mg. For the same molecule, in [3] (human, human liver microsomes), the half-life at 1 μM was 64.2 min.

Take `CCN(CC)C(=O)C[C@@H]1NC(=O)c2cc(Oc3cc(C)cc(C)c3)c(NC(=O)c3cc(OC)c(OC)c(OC)c3Cl)cc2NC1=O` [c, reference compound]: the microsomal CLint at 1 μM in series [3] stood at 26.5 µL/min/mg. In addition, the half-life at 1 μM in series [3] (human, human liver microsomes) came out at 26.2 min.

For the molecule `CCN(CC)C(=O)C[C@@H]1NC(=O)c2cc(Oc3cc(C)cc(C)c3)c(NC(=O)c3cc(OC)c(OC)c(OC)c3Br)cc2NC1=O` [b, reference compound], the microsomal CLint at 1 μM in series [3] was 26.4 µL/min/mg. The half-life at 1 μM in [3] (human, human liver microsomes) came out at 26.3 min.

The values above are taken from patent publication US12577213B2 (NINGBO COMBIREG PHARMACEUTICAL TECHNOLOGY CO., LTD., priority 2020, dated 2026).
